The record followed here is patent US20240150358A1, “PURINES AND METHODS OF THEIR USE” (Kineta, Inc., priority 2020, published 2024).

One experiment deals with FAB1 TDP-43 yeast strain. The experiment in a line: Propidium iodide flow cytometry viability assay, control FAB1 TDP-43 yeast strain. The class given is cell-based. The following applies: 15 μM to 0.11 μM. From the text:
(§1) Generation of TDP-43 yeast model expressing human PIKfyve. Human PIKFYVE (“entry clone”) was cloned into pAG416GPDccdB (“destination vector”) according to standard Gateway cloning protocols (Invitrogen, Life Technologies). The resulting pAG416GPD-PIKFYVE plasmids were amplified in E. coli and plasmid identity confirmed by restriction digest and Sanger sequencing. Lithium acetate/polyethylene glycol-based transformation was used to introduce the above PIKFYVE plasmid into a BY4741 yeast strain auxotrophic for the ura3 gene and deleted for two transcription factors that regulate the xenobiotic efflux pumps, a major efflux pump, and FAB1, the yeast ortholog of PIKFYVE (MATa, snq2::KILeu2; pdr3::Klura3; pdr1::NATMX; fab1::G418R, his3; leu2; ura3; met15; LYS2+) (FIG. 2). Transformed yeast were plated on solid agar plates with complete synthetic media lacking uracil (CSM-ura) and containing 2% glucose. Individual colonies harboring the control or PIKFYVE TDP-43 plasmids were recovered. A plasmid containing wild-type TDP-43 under the transcriptional control of the GAL1 promoter and containing the hygromycin-resistance gene as a selectable marker was transformed into the fab/::G418R pAG416GPD-PIKFYVE yeast strain (FIG. 1). Transformed yeast were plated on CSM-ura containing 2% glucose and […] after overnight recovery in media lacking antibiotic. Multiple independent isolates were further evaluated for cytotoxicity and TDP-43 expression levels.
(§2) Viability Assay. A control yeast strain with the wild-type yeast FAB1 gene and TDP-43 (“FAB1 TDP-43”, carries empty pAG416 plasmid), and the “PIKFYVE TDP-43” yeast strain, were assessed for toxicity using a propidium iodide viability assay. Both yeast strains were transferred from solid CSM-ura/2% glucose agar plates into 3 mL of liquid CSM-ura/2% glucose media for 6-8 hours at 30° C. with aeration. Yeast cultures were then diluted to an optical density at 600 nm wavelength (OD600) of 0.005 in 3 mL of CSM-ura/2% raffinose and grown overnight at 30° C. with aeration to an OD600 of 0.3-0.8. Log-phase overnight cultures were diluted to OD600 of 0.005 in CSM-ura containing either 2% raffinose or galactose and 150 μL dispensed into each well of a flat bottom 96-well plates. Compounds formulated in 100% dimethyl sulfoxide (DMSO) were serially diluted in DMSO and 1.5 μL diluted compound transferred to the 96-well plates using a multichannel pipet. Wells containing DMSO alone were also evaluated as controls for compound effects. Tested concentrations ranged from 15 μM to 0.11 μM. Cultures were immediately mixed to ensure compound distribution and covered plates incubated at 30° C. for 24 hours in a stationary, humified incubator.
(§3) Upon the completion of incubation, cultures were assayed for viability using propidium iodide (PI) to stain for dead/dying cells. A working solution of PI was made where, for each plate, 1 μL of 10 mM PI was added to 10 mL of CSM-ura (raffinose or galactose). The final PI solution ([…]) was dispensed into each well of a new round bottom 96-well plate. The overnight 96-well assay plate was then mixed with a multichannel pipet and 50 μL transferred to the PI-containing plate. This plate was then incubated for 30 minutes at 30° C. in the dark. A benchtop flow cytometer (Miltenyi MACSquant) was then used to assess red fluorescence (B2 channel), forward scatter, and side scatter (with following settings: gentle mix, high flow rate, fast measurement, 10,000 events). Intensity histograms were then gated for “PI-positive” or “PI-negative” using the raffinose and galactose cultures treated with DMSO as controls. The DMSO controls for raffinose or galactose-containing cultures were used to determine the window of increased cell death and this difference set to 100. All compounds were similarly gated and then compared to this maximal window to establish the percent reduction in PI-positive cells.

The subject of experiment [1] is PIKFYVE TDP-43 yeast strain. In words: Propidium iodide flow cytometry viability assay, PIKFYVE TDP-43 yeast strain. The class given is cell-based. The following applies: for PIKfyve TDP-43 (active/inactive): yeast viability, 15 μM to 0.11 μM; for IC50: reduction in PI-positive cells, values plotted in FIG. 7.
Excerpt: as §1, §2, §3

Experiment [2] has as its target full-length human PIKFYVE (Homo sapiens (Human), UniProt Q9Y2I7, L932S/Q1183K/Q995L/S1033A/S696N/T998S). In words: PIKfyve biochemical assay (ADP-Glo Kinase assay, Carna Biosciences). On the procedure: (§4) PIKfyve Biochemical Assay. The biochemical PIKFyve inhibition assays were run by Carna Biosciences according to proprietary methodology based on the Promega ADP-Glo™ Kinase assay. […] GST-PIKFYVE was purified by using glutathione sepharose chromatography and used in an ADP-Glo™ Kinase assay (Promega). Reactions were set up by adding the test compound solution, substrate solution, ATP solution and kinase solution, each at 4× final concentrations. Reactions were prepared with assay buffer (50 mM MOPS, 1 mM DTT, pH7.2), mixed, and incubated in black 384 well polystyrene plates for 1 hour at room temperature. ADPGlo™ reagent was then added for 40 minutes, followed by kinase detection reagent for an additional 40 minutes. The kinase activity was evaluated by detecting relative light units on a luminescence plate reader. Samples were run in duplicate from 10 μM to 3 nM. […] IC50 values were calculated from concentration vs % inhibition curves by fitting to a four-parameter logistic curve.
as §4, with “The” for “PIKfyve Biochemical Assay. The”, “ADP-Glo™” for “ADPGlo™”, “uM” for “μM”, “curve. […]” for “curve.”

The next experiment concerns the target hPIKfyve (Homo sapiens (Human), UniProt Q9Y2I7). The experiment in a line: NanoBRET TE Intracellular Kinase Assay, K-8, in HEK293 cells transfected with PIKFYVE-NanoLuc Fusion Vector. The class given is cell-based. The following applies: 2 hours, tracer displacement, read-out: hPIKfyve BRET IC50. On the procedure:
NanoBRET™ TE Intracellular Kinase Assay, K-8 (Promega) Cell-Based Assay. Intracellular inhibition of PIKfyve was assayed using Promega's NanoBRET™ TE Intracellular Kinase Assay, K-8 according to manufacturer's instructions. A dilution series of test compounds was added for 2 hours to HEK293 cells transfected for a minimum of 20 hours with PIKFYVE-NanoLuc® Fusion Vector (Promega) containing a full-length PIKfyve according to manufacturer's specifications in a 96-well plate. Kinase activity was detected by addition of a NanoBRET™ tracer reagent, which was a proprietary PIKfyve inhibitor appended to a fluorescent probe (BRET, bioluminescence resonance energy transfer). Test compounds were tested at concentrations of 10, 3, 1, 0.3, 0.1, 0.03, 0.01, 0.003 μM. BRET signals were measured by a GloMax®Discover Multimode Microplate Reader (Promega) using 0.3 sec/well integration time, 450BP donor filter and 600LP acceptor filters. Active test compounds that bound PIKfyve and displaced the tracer reduced BRET signal. IC50 values were then calculated by fitting the data to the normalized BRET ratio.

Setting [3] is: values plotted in FIG. 7, read-out: PIKFYVE Biochemistry (IC50).
[4] abbreviates: ADP-Glo, GST-PIKFYVE, 10 μM to 3 nM, read-out: hPIKfyve IC50.

Like-named read-outs stand apart in the source and are kept apart here.

full-length human PIKFYVE, sequence (Q9Y2I7 whole entry S696N/L932S/Q995L/T998S/S1033A/Q1183K): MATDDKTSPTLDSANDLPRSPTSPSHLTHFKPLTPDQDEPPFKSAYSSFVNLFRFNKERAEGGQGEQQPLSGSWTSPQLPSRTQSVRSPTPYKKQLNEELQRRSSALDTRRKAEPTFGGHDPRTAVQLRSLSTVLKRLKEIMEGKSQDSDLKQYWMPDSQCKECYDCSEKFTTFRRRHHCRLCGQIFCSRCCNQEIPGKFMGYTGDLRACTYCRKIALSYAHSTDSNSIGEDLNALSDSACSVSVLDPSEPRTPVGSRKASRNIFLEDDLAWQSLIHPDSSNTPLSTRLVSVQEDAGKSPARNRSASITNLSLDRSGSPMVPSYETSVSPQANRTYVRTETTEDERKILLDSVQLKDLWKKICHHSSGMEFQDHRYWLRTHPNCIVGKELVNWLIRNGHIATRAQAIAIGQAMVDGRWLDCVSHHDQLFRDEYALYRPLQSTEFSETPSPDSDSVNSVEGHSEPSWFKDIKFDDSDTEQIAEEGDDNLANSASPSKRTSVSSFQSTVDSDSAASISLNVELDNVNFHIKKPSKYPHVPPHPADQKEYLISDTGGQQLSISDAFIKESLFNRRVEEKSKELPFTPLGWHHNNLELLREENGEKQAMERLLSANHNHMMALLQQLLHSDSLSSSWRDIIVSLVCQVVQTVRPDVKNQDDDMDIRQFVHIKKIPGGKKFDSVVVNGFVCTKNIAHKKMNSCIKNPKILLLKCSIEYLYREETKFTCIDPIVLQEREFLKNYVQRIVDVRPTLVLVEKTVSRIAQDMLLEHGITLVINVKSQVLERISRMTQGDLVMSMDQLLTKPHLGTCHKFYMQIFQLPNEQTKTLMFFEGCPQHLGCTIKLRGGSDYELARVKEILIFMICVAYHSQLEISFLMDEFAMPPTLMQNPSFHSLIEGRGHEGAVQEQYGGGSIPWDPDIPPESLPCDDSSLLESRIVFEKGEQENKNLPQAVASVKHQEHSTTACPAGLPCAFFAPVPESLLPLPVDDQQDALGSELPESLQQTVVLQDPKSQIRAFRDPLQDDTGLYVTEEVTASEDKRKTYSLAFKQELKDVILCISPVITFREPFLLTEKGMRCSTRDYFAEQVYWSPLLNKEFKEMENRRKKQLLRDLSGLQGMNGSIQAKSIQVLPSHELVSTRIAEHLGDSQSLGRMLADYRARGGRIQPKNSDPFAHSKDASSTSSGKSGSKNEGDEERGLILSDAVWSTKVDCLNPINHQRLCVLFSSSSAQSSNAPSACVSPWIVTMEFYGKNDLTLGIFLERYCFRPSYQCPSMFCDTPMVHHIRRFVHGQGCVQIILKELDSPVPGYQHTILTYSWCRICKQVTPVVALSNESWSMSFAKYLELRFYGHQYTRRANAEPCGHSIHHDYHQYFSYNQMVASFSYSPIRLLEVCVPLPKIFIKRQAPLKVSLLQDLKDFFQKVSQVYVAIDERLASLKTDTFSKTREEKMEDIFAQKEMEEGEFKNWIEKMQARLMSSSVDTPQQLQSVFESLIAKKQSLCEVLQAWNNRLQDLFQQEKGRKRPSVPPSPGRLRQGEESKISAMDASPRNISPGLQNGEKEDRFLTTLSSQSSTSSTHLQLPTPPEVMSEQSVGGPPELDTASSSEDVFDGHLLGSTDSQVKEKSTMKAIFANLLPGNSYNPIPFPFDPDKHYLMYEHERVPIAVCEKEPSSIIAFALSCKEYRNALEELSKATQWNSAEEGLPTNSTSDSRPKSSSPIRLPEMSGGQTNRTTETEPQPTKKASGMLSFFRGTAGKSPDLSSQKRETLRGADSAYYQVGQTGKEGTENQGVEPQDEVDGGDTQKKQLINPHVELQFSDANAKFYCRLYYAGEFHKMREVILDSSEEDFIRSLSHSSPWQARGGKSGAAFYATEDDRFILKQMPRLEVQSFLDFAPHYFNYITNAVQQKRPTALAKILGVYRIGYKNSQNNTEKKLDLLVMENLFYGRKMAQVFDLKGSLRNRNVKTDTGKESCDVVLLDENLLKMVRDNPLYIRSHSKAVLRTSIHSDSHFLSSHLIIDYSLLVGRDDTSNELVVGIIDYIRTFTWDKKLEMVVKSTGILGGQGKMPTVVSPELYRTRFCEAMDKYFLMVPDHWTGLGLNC
hPIKfyve, sequence (Q9Y2I7 whole entry, the tested form may be a part): as the sequence (Q9Y2I7 whole entry S696N/L932S/Q995L/T998S/S1033A/Q1183K) above, with N696S, S932L, L995Q, S998T, A1033S, K1183Q counted along it

With `Cc1cccc(/C=N/Nc2cc(N3CCOCC3)nc(OCCc3ccccn3)n2)c1`, the “FAB1 TDP-43 (active/inactive)” value in the experiment on FAB1 TDP-43 yeast strain is “Inactive”. Moreover, the “PIKfyve TDP-43 (active/inactive)” value in experiment [1] is “Inactive”.

As to `CN(C)c1cc(N2CCOCC2)n2nc(-c3ccncc3)cc2n1`, the “FAB1 TDP-43 (active/inactive)” value with FAB1 TDP-43 yeast strain is “Inactive”. Besides, the “PIKfyve TDP-43 (active/inactive)” value in experiment [1] is on record as “Inactive”.

`Cc1cccc(/C=N/Nc2cc(N3CC4CC3CO4)n3nc(-c4ccncc4)cc3n2)c1` (centres unmarked): the half-maximal inhibitory concentration (IC50) came out at 3 nM in experiment [2] (setting [3]) and 450 nM in experiment [1] (Saccharomyces cerevisiae).

As to `c1ccc(C2CN(c3nc(N4CCOCC4)n4nc(-c5ccncc5)cc4n3)CCN2)cc1` (centres unmarked), the IC50 in experiment [2] (setting [3]) was 2660 nM; in experiment [1] (Saccharomyces cerevisiae), greater than 15000 nM.

Take `c1ccc(-c2cccc(-c3nc(N4CCOCC4)n4nc(-c5ccncc5)cc4n3)n2)cc1`: the half-inhibitory concentration (IC50) in experiment [2] (setting [3]) worked out at 14 nM; in experiment [1] (Saccharomyces cerevisiae) it was 230 nM.

As to `c1cc(-c2cc3nc(C4CNC4)nc(N4CCOCC4)n3n2)ccn1`, the concentration for half-maximal inhibition (IC50) is 8020 nM in experiment [2] (setting [3]) and greater than 15000 nM in experiment [1] (Saccharomyces cerevisiae).

`Oc1cc(-c2ccccc2)nn1-c1cc(N2CCOCC2)n2nc(-c3ccncc3)nc2n1`: it took 693 nM to reach half-maximal inhibition in experiment [1] (Saccharomyces cerevisiae) (IC50).

`Oc1cc(C2CCOCC2)nn1-c1cc(N2CCOCC2)n2nc(-c3ccncc3)cc2n1`: the half-maximal inhibitory concentration (IC50) in experiment [1] (Saccharomyces cerevisiae) was determined as 9100 nM.

As to `Cc1cccc(/C=N/Nc2nc(N3CCOCC3)c3ncccc3n2)c1`, the half-inhibitory concentration (IC50) in experiment [1] (Saccharomyces cerevisiae) was 8210 nM.

`c1ccc(-c2ccnc(-c3cc(N4CCOCC4)nc(OCc4ccncc4)n3)n2)cc1` returned a half-maximal inhibitory concentration (IC50) in experiment [1] (Saccharomyces cerevisiae) of 1450 nM.

`c1ccc(N2CCc3c(OCc4cccnc4)nc(N4CCOCC4)nc32)cc1` showed an IC50 in experiment [1] (Saccharomyces cerevisiae) of 2680 nM.

Consider `Fc1cccc(-c2ccnn2-c2nc(N3CCOCC3)c3ncccc3n2)c1`, for which the values for the half-inhibitory concentration (IC50) in experiment [2] (setting [3]) and in experiment [1] (Saccharomyces cerevisiae) were greater than 10000 nM and 5750 nM, respectively.

Take `Cn1c(-c2ccncc2)nc2c(N3CCOCC3)nc(-c3ccnc(-c4ccccc4)n3)nc21` [Compound 1]: the IC50 (in experiment [2] (setting [4]); at hPIKfyve) was 10 to 100 nM throughout.

Take `c1cc(-c2nc3c(N4CCOCC4)nc(-n4ccc(C5CCOCC5)n4)nc3[nH]2)ccn1` [Compound 6]: the IC50 (in experiment [2] (setting [4]); on hPIKfyve) was 10 to 100 nM each time.

As for `Cn1c(-c2ccncc2)nc2c(N3CCOCC3)nc(-n3ccc(-c4cccc(F)c4)n3)nc21` [Compound 28], the half-inhibitory concentration (IC50) (in experiment [2] (setting [4]); at hPIKfyve) was 10 to 100 nM each time.

In the case of `Cn1c(-c2ccncc2)nc2c(N3CCOCC3)nc(-c3noc(-c4ccccc4)n3)nc21` [Compound 32], the results for the IC50 (in experiment [2] (setting [4]); on hPIKfyve) were 10 to 100 nM and 100 to 1000 nM, respectively.

Turning to `CN1CCC(c2ccn(-c3nc(N4CCOCC4)c4nc(-c5ccncc5)n(C)c4n3)n2)C1` (centres unmarked) [Compound 37], the IC50 was 100 to 1000 nM in experiment [2] (setting [4]) and 1000 to 10000 nM at hPIKfyve.

Consider `Cn1c(-c2ccncc2)nc2c(N3CCOCC3)nc(-n3cccn3)nc21` [Compound 47], for which the IC50 in experiment [2] (setting [4]) was 10 to 100 nM; on hPIKfyve, 100 to 1000 nM.

On to `Cc1cccc(/C=N/Nc2nc(N3CCOCC3)c3nc(-c4ccncc4)n(C)c3n2)c1` [Compound 52, (E)-4-(9-methyl-2-(2-(3-methylbenzylidene)hydrazineyl)-8-(pyridin-4-yl)-9H-purin-6-yl)morpholine], for which the half-inhibitory concentration (IC50) (in experiment [2] (setting [4]); on hPIKfyve) was less than 10 nM in each case.

Consider `Cc1cccc(/C=N/Nc2nc(N3CCOCC3)c3nc(-c4ccncc4)n(C)c3n2)c1` [Compound 118], for which the IC50 (in experiment [2] (setting [4]); at hPIKfyve) was 10 to 100 nM in each case.

As to `Cc1cccc(/C=N/Nc2nc(N3CCOCC3)c3nc(-c4ccncc4)[nH]c3n2)c1` [Compound 119], the IC50 (in experiment [2] (setting [4]); at hPIKfyve) was less than 10 nM throughout.

For the molecule `c1ccc(-c2nccc(-c3nc(N4CCOCC4)c4sc(-c5ccncc5)nc4n3)n2)cc1` [Compound 125], the 50% inhibitory concentration (IC50) in experiment [2] (setting [4]) lay within 100 to 1000 nM.

Take `Cc1cccc(/C=N/Nc2nc(N3CCOCC3)c3nc(-c4ccncc4)n(C)c3n2)c1` [drawing 168]: the concentration for half-maximal inhibition (IC50) was determined as 1 nM in experiment [2] (setting [3]) and 1390 nM in experiment [1].

In the case of `Cn1c(-c2ccncc2)nc2c(N3CCOCC3)ncnc21` [drawing 169], the IC50 came to 7 nM in experiment [2] (setting [3]) and 1120 nM in experiment [1].

`Cc1cccc(/C=N/Nc2nc(N3CCOCC3)c3nc(-c4ccncc4)n(C)c3n2)c1` [drawing 177]: the concentration for half-maximal inhibition (IC50) in experiment [2] (setting [3]) stood at 5 nM; in experiment [1] it was 4720 nM.
